The source of these data is patent US9738655B2, “Tetrahydroisoquinolines containing substituted azoles as factor XIa inhibitors” (BRISTOL-MYERS SQUIBB COMPANY, priority 2013, dated 2017).

Where a name gives a salt, the structure may show the parent alone.

Sequence of purified human plasma kallikrein (P03952 391-638): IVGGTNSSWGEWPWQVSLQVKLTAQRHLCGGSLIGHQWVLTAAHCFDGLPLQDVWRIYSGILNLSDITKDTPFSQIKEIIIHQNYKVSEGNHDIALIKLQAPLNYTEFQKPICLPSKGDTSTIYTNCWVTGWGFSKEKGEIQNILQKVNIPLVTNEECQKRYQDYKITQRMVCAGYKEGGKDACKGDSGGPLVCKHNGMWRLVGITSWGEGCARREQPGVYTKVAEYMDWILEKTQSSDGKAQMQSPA
Sequence of purified human plasma kallikrein (P03952 20-390 partner): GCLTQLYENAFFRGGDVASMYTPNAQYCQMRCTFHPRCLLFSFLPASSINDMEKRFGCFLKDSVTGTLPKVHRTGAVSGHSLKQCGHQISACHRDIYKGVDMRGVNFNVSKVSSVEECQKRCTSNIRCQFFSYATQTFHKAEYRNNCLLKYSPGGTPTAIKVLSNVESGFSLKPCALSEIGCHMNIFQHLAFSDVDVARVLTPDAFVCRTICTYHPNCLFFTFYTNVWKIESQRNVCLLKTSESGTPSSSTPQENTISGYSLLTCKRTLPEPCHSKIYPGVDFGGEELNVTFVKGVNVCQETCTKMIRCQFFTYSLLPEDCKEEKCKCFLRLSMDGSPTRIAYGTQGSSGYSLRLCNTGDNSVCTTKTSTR

One assay concerns the target purified human plasma kallikrein (Homo sapiens (Human), UniProt P03952). In words: Plasma kallikrein enzyme inhibition assay (chromogenic substrate S-2302). The class given is biochemical. As to conditions: measured at 25° C. (no asterisk).
Protocol: The effectiveness of compounds of the present invention as inhibitors of the coagulation Factors XIa, VIIa, IXa, Xa, XIIa, plasma kallikrein or thrombin, can be determined using a relevant purified serine protease, respectively, and an appropriate synthetic substrate. The rate of hydrolysis of the chromogenic or fluorogenic substrate by the relevant serine protease was measured both in the absence and presence of compounds of the present invention. […] A decrease in the rate of absorbance or fluorescence change in the presence of inhibitor is indicative of enzyme inhibition. […] The results of this assay are expressed as the inhibitory constant, Ki.
Values of Ki were determined by allowing the protease to react with the substrate in the presence of the inhibitor.
The following relationships were used to calculate Ki values: (Vmax*S)/(Km+S); (vo−vs)/vs=I/(Ki(1+S/Km)) for a competitive inhibitor with one binding site; or vs/vo=A+((B−A)/1+((IC50/(I)n))); and Ki−IC50/((1+S/Km) for a competitive inhibitor where:
A word on the Ki: it is the equilibrium dissociation constant of an inhibitor or competing ligand from its target. In turn, `O=C(O)c1ccc(NC(=O)[C@@H]2c3ccccc3CCN2C(=O)[C@H]2CC(c3cccc(Cl)c3F)=NO2)cc1` [Example 4, 4-((S)-2-((R)-3-(3-Chloro-2-fluorophenyl)-4,5-dihydroisoxazole-5-carbonyl)-1,2,3,4-tetrahydroisoquinoline-1-carboxamido)benzoic acid] returned a Ki of 6.38 nM.

`COCCOc1cccc2c1CCN(C(=O)[C@H]1CC(c3cccc(Cl)c3F)=NO1)[C@H]2C(=O)Nc1ccc(C(=O)O)cc1` [Example 115, 4-((R)-2-((R)-3-(3-Chloro-2-fluorophenyl)-4,5-dihydroisoxazole-5-carbonyl)-5-(2-methoxyethoxy)-1,2,3,4-tetrahydroisoquinoline-1-carboxamido)benzoic acid] yielded a Ki of 61.3 nM.

Take `O=C(O)c1ccc(NC(=O)[C@H]2c3ccccc3CCN2C(=O)[C@H]2CC(c3cccc(Cl)c3F)=NO2)cc1` [Example 5, 4-((R)-2-((R)-3-(3-Chloro-2-fluorophenyl)-4,5-dihydroisoxazole-5-carbonyl)-1,2,3,4-tetrahydroisoquinoline-1-carboxamido)benzoic acid]: affinity was put at a Ki of 1380 nM.

`O=C(O)c1ccc(NC(=O)[C@H]2c3cccc(N4CCCCC4)c3CCN2C(=O)[C@H]2CC(c3cccc(Cl)c3F)=NO2)cc1` [Example 292, 4-((R)-2-((R)-3-(3-chloro-2-fluorophenyl)-4,5-dihydroisoxazole-5-carbonyl)-5-(piperidin-1-yl)-1,2,3,4-tetrahydroisoquinoline-1-carboxamide)benzoic acid, TFA salt] had a Ki of 758 nM.

The assay is the same for the next values; noted with them: measured at 25° C. (no asterisk); TFA salt.
On to `COC1CCN(c2cccc3c2CCN(C(=O)C2CC(c4cccc(Cl)c4F)=NO2)C3C(=O)Nc2ccc(C(=O)O)cc2)CC1` (single isomer, unassigned) [Example 303, 4-(2-(3-(3-chloro-2-fluorophenyl)-4,5-dihydroisoxazole-5-carbonyl)-5-(4-methoxypiperidin-1-yl)-1,2,3,4-tetrahydroisoquinoline-1-carboxamido)benzoic acid, TFA salt], for which the Ki worked out at 1960 nM.

The assay is the same for the next values; noted with them: measured at 37° C. (*).
For `O=C(O)c1ccc(NC(=O)[C@@H]2c3cccc(-n4cnnc4)c3CCN2C(=O)[C@H]2CC(c3cccc(Cl)c3F)=NO2)cc1` [Example 247, 4-((S)-2-((R)-3-(3-Chloro-2-fluorophenyl)-4,5-dihydroisoxazole-5-carbonyl)-5-(4H-1,2,4-triazol-4-yl)-1,2,3,4-tetrahydroisoquinoline-1-carboxamido)benzoic acid, TFA salt], the Ki worked out at 9.2 nM.

`O=C(O)c1ccc(NC(=O)[C@H]2c3cccc(-c4cncc(F)c4)c3CCN2C(=O)[C@H]2CC(c3cccc(Cl)c3F)=NO2)cc1` [Example 22, 4-((R)-2-((R)-3-(3-Chloro-2-fluorophenyl)-4,5-dihydroisoxazole-5-carbonyl)-5-(5-fluoropyridin-3-yl)-1,2,3,4-tetrahydroisoquinoline-1-carboxamido)benzoic acid, TFA salt] came in with a Ki of 869 nM.

For the next assay, the target named is purified human Factor XIa (Homo sapiens (Human), UniProt P03951). In words: Factor XIa enzyme inhibition assay (chromogenic substrate S-2366). Conditions: read-out: Factor XIa Ki; measured at 25° C.
Sequence of purified human Factor XIa (P03951 388-625): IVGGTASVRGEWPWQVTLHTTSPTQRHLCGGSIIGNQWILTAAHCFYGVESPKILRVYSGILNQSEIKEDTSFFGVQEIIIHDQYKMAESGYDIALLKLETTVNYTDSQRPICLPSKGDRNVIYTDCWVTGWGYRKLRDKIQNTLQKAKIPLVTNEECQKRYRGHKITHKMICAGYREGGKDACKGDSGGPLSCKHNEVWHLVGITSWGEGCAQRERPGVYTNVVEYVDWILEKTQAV
Sequence of purified human Factor XIa (P03951 19-387 partner): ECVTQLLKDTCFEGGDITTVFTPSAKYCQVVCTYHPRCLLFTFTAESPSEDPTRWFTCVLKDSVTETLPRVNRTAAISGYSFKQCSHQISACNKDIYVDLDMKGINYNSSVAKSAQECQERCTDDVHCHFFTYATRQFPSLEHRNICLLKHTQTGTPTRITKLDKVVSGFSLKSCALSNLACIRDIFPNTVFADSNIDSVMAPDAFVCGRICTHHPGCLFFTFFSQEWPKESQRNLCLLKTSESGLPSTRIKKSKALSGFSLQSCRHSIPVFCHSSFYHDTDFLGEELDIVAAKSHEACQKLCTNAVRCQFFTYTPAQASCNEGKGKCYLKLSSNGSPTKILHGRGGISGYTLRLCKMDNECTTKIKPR
In the case of `O=C(O)c1ccc(NC(=O)C2c3cccc(-c4cccc(-c5ccn[nH]5)c4)c3CCN2C(=O)c2cn(-c3cccc(Cl)c3F)nn2)cc1` (centres unmarked) [Example 164, 4-(5-(3-(1H-pyrazol-5-yl)phenyl)-2-(1-(3-chloro-2-fluorophenyl)-1H-1,2,3-triazole-4-carbonyl)-1,2,3,4-tetrahydroisoquinoline-1-carboxamido)benzoic acid], the Ki came out at 9.17 nM.

As to `CN(C)c1ccc(-c2cccc3c2CCN(C(=O)c2cn(-c4cccc(Cl)c4F)nn2)C3C(=O)Nc2ccc(C(=O)O)cc2)cn1` (centres unmarked) [Example 172, 4-(2-(1-(3-chloro-2-fluorophenyl)-1H-1,2,3-triazole-4-carbonyl)-5-(6-(dimethylamino)pyridin-3-yl)-1,2,3,4-tetrahydroisoquinoline-1-carboxamido)benzoic acid], the Ki was less than 5 nM.

In the case of `O=C(O)c1ccc(NC(=O)C2c3cccc(C4=CCNCC4)c3CCN2C(=O)c2cn(-c3cccc(Cl)c3F)nn2)cc1` (centres unmarked) [Example 187, 4-(2-(1-(3-chloro-2-fluorophenyl)-1H-1,2,3-triazole-4-carbonyl)-5-(1,2,3,6-tetrahydropyridin-4-yl)-1,2,3,4-tetrahydroisoquinoline-1-carboxamido)benzoic acid], the Ki is less than 5 nM.

Regarding `NCc1ccc(-c2cccc3c2CCN(C(=O)c2cn(-c4cccc(Cl)c4F)nn2)C3C(=O)Nc2ccc(C(=O)O)cc2)cc1` (centres unmarked) [Example 163, 4-(5-(4-(aminomethyl)phenyl)-2-(1-(3-chloro-2-fluorophenyl)-1H-1,2,3-triazole-4-carbonyl)-1,2,3,4-tetrahydroisoquinoline-1-carboxamido)benzoic acid, TFA salt], the Ki was less than 5 nM.

`Nc1cc(-c2cccc3c2CCN(C(=O)c2cn(-c4cccc(Cl)c4F)nn2)C3C(=O)Nc2ccc(C(=O)O)cc2)ccn1` (centres unmarked) [Example 38, 4-(5-(2-aminopyridin-4-yl)-2-(1-(3-chloro-2-fluorophenyl)-1H-1,2,3-triazole-4-carbonyl)-1,2,3,4-tetrahydroisoquinoline-1-carboxamido)benzoic acid, bis-TFA salt]: the Ki was less than 5 nM.

Regarding `O=C(O)c1ccc(NC(=O)[C@H]2c3ccccc3CCN2C(=O)c2cn(-c3cccc(Cl)c3F)nn2)cc1` [Example 2, (R)-4-(2-(1-(3-Chloro-2-fluorophenyl)-1H-1,2,3-triazole-4-carbonyl)-1,2,3,4-tetrahydroisoquinoline-1-carboxamido)benzoic acid], the Ki amounted to 5580 nM.

As for `CNC(=O)c1ccc(-c2cccc3c2CCN(C(=O)c2cn(-c4cccc(Cl)c4F)nn2)C3C(=O)Nc2ccc(C(=O)O)cc2)cn1` (centres unmarked) [Example 166, 4-(2-(1-(3-chloro-2-fluorophenyl)-1H-1,2,3-triazole-4-carbonyl)-5-(6-(methylcarbamoyl)pyridin-3-yl)-1,2,3,4-tetrahydroisoquinoline-1-carboxamido)benzoic acid, TFA salt], the Ki is less than 5 nM.

In the case of `COC1CCN(c2cccc3c2CCN(C(=O)c2cc(-c4cccc(F)c4)no2)C3C(=O)Nc2ccc(C(=O)O)cc2)CC1` (centres unmarked) [Example 152, 4-(2-(3-(3-fluorophenyl)isoxazole-5-carbonyl)-5-(4-methoxypiperidin-1-yl)-1,2,3,4-tetrahydroisoquinoline-1-carboxamido)benzoic acid, TFA salt], the Ki amounted to 466 nM.

Regarding `Cc1nnc(-c2cccc(-c3cccc4c3CCN(C(=O)c3cn(-c5cccc(Cl)c5F)nn3)C4C(=O)Nc3ccc(C(=O)O)cc3)c2)o1` (centres unmarked) [Example 171, 4-(2-(1-(3-chloro-2-fluorophenyl)-1H-1,2,3-triazole-4-carbonyl)-5-(3-(5-methyl-1,3,4-oxadiazol-2-yl)phenyl)-1,2,3,4-tetrahydroisoquinoline-1-carboxamido)benzoic acid], the Ki was less than 5 nM.

On to `O=C(O)c1ccc(NC(=O)C2c3cccc(NCCO)c3CCN2C(=O)c2cn(-c3cccc(Cl)c3F)nn2)cc1` (centres unmarked) [Example 111, 4-(2-(1-(3-Chloro-2-fluorophenyl)-1H-1,2,3-triazole-4-carbonyl)-5-((2-hydroxyethyl)amino)-1,2,3,4-tetrahydroisoquinoline-1-carboxamido)benzoic acid, TFA salt], for which the Ki is 6.04 nM.

Regarding `O=C(O)c1ccc(NC(=O)C2c3cccc(N4CCC(N5CCCC5)CC4)c3CCN2C(=O)c2cn(-c3cccc(Cl)c3F)nn2)cc1` (centres unmarked) [Example 210, 4-(2-(1-(3-chloro-2-fluorophenyl)-1H-1,2,3-triazole-4-carbonyl)-5-(4-(pyrrolidin-1-yl)piperidin-1-yl)-1,2,3,4-tetrahydroisoquinoline-1-carboxamido)benzoic acid, 2 TFA salt], the Ki is less than 5 nM.

In the case of `CNC(=O)c1ccc(-c2cccc3c2CCN(C(=O)c2cnn(-c4cccc(Cl)c4F)c2N)C3C(=O)Nc2ccc(C(=O)O)cc2)cn1` (centres unmarked) [Example 47, 4-(2-(5-Amino-1-(3-chloro-2-fluorophenyl)-1H-pyrazole-4-carbonyl)-5-(6-(methylcarbamoyl)pyridin-3-yl)-1,2,3,4-tetrahydroisoquinoline-1-carboxamido)benzoic acid, TFA salt], the inhibitory constant (Ki) is less than 5 nM.

Consider `COC1CCN(c2cccc3c2CCN(C(=O)C2CCN(c4ccc(OC(C)C)cc4)C2=O)C3C(=O)Nc2ccc(C(=O)O)cc2)CC1` (centres unmarked) [Example 149, 4-(2-(1-(4-isopropoxyphenyl)-2-oxopyrrolidine-3-carbonyl)-5-(4-methoxypiperidin-1-yl)-1,2,3,4-tetrahydroisoquinoline-1-carboxamido)benzoic acid, TFA salt], for which the Ki was 7160 nM.

Consider `O=C(N[C@H]1CC[C@@H](C(=O)O)CC1)C1c2cccc(-c3cncnc3)c2CCN1C(=O)c1cn(-c2cccc(Cl)c2F)nn1` (stereo partly drawn) [Example 133, (1R,4R)-4-(2-(1-(3-chloro-2-fluorophenyl)-1H-1,2,3-triazole-4-carbonyl)-5-(pyrimidin-5-yl)-1,2,3,4-tetrahydroisoquinoline-1-carboxamido) cyclohexanecarboxylic acid], for which the inhibition constant (Ki) stood at 12.6 nM.

Regarding `COC(=O)C12CCC(NC(=O)C3c4cccc(-c5cncnc5)c4CCN3C(=O)c3cn(-c4cccc(Cl)c4F)nn3)(CC1)CC2` (centres unmarked) [Example 142, Methyl 4-(2-{[1-(3-chloro-2-fluorophenyl)-1H-1,2,3-triazol-4-yl]carbonyl}-5-(pyrimidin-5-yl)-1,2,3,4-tetrahydroisoquinoline-1-amido)bicyclo[2.2.2]octane-1-carboxylate, TFA salt], the Ki worked out at 56.2 nM.

Turning to `O=C(O)c1ccc(NC(=O)[C@H]2c3cccc(N4CCC(O)CC4)c3CCN2C(=O)c2cn(-c3cccc(Cl)c3F)nn2)cc1` [Example 87, (R)-4-(2-(1-(3-chloro-2-fluorophenyl)-1H-1,2,3-triazole-4-carbonyl)-5-(4-hydroxypiperidin-1-yl)-1,2,3,4-tetrahydroisoquinoline-1-carboxamido)benzoic acid, TFA salt], the inhibitory constant (Ki) is 43 nM.
